Source: patent US7163941B2, “Pyrido[2,3-d]pyrimidin-7-carboxylic acid derivatives, their manufacture and use as pharmaceutical agents” (Hoffmann-La Roche Inc., priority 2003, dated 2007)

Tests used:
Lck (p56^lck, active) = molecular target: T1, Lck (p56^lck, active) (Homo sapiens, UniProt P06239); assay: SRC-Inhibitor-Assay (time-resolved fluorescence), Lck enzyme; type: biochemical; settings: ATP 5 μM, peptide 10 μM, enzyme 2.5 U/ml, pre-incubation 15 min at 15° C.
T1 construct: purchased Upstate (UBI)
T1 sequence (P06239 whole entry, species assumed): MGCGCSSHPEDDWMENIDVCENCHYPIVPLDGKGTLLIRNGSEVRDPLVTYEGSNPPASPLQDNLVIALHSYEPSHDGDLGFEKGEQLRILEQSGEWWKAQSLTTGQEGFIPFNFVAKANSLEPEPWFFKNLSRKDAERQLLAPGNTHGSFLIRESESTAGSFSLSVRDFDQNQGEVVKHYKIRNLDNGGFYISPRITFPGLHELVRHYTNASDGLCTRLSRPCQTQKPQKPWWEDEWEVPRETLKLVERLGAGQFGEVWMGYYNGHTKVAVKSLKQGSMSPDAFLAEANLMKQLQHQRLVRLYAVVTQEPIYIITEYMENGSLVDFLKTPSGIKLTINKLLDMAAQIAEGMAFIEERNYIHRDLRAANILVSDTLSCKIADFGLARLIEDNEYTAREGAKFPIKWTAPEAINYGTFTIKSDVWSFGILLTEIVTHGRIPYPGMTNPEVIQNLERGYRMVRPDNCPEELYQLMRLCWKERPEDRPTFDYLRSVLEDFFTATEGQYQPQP
Protocol: (§1) The activity of the compounds according to this invention as inhibitors for the src-family tyrosine kinases was shown by using the following assay.
(§2) SRC-Inhibitor-Assay Parameters:
(§3) • Reaction mixture: • ATP 5 μM • Peptide (R+Ja133-Ro): 10 μM • Ja133-Ro 196 nM • Ro 9.8 μM • PT66 230 ng/ml • Assay buffer: 4 mM MgCl2 • 2 mM TCEP • 50 mM HEPES • 0,1% Tween 20 • pH 7.3 • Enzyme: 2.5 U/ml • Inhibitor: max. 25 μM • min. 0.42 nM Material: • Eu-labelled phosphotyrosine antibody: -for Lck Cisbio Mab PT66-K, • for Src EG&G Wallac PT66 Eu-W1024 (all commercially available). • Peptides: Ro: NH2-A-E-E-E-I-Y-G-E-F-E-A-K-K-K-K-CONH2 (SEQ ID NO: 1), and • Ja133-Ro: Ja133-G-Aminocaprylic acid-A-E-E-E-I-Y-G-E-F-E-A-K-K-K-K-CONH2 (SEQ ID NO: 2), wherein Ja133 is LightCycler-Red 640-N-hydroxy succinimide ester; • whereby both peptides were synthesized by an optimized solid phase peptide synthesis protocol (Merrifield, Fed. Proc. Fed. Amer. Soc. Exp. Biol. 21 (1962) 412) on a Zinsser SMP350 peptide synthesizer. Shortly, the peptide was assembled on 160 mg (22.8 μmol scale) of a Rink-Linker modified polystyrene solid phase by repeatedly conjugating an twenty fold excess of aminoacids each protected by temporary piperidine labile Fmoc- and permanent acid labile tert-Bu-, BOC- and Otert-Bu-groups depending on the side chain function. The substrate sequence AEEEIYGEFEAKKKK (SEQ ID NO: 1) was N-terminal additionally mounted with the spacer amino acids Aminocaprylic acid and Glycin. After cleavage of the N-terminal temporary protecting group the still attached and protected peptide was labeled with a 1.5 fold amount of LightCycler-Red 640-N-hydroxy succinimide ester (purchased by Roche Diagnostics GmbH) and triethylamine. After 3 hrs. the resin was washed with Dimethylformamide and Isopropanol until the eluates of the blue resin got colo-rless. […] The substrate was finally isolated by a preparative reverse phase HPLC purification. The purification yielded 12.2 mg RP-HPLC single peak pure blue material (lyophilisate). The identity was proven by MALDI mass spectroscopy [2720.0]. • Enzymes: Upstate Lck (p56^lck, active), Upstate Src (p60^c-src, partially purified) were purchased from UBI. • Time-resolved Fluorescence Assay: Reader: Perkin Elmer, Wallac Viktor 1420-040 multilabel counter; Liquid handling system: Beckman Coulter, Biomek 2000. ATP, Tween 20, HEPES were purchased from Roche Molecular Biochemicals, MgCl2 and MnCl2 were purchased from Merck Eurolab, TCEP was purchased from Pierce, 384 Well low volume fluorescence plates was purchased from Falcon. Assay Description:
(§4) At first the enzyme is pre-incubated for 15 min. at 15° C. in aqueous solution with corresponding amounts of inhibitors according to this invention. Then the phosphorylation reaction is started by adding a reaction mixture, containing ATP, Peptide and PT66, and subsequent shaking. The proceeding of this reaction is immediately monitored using time resolved fluorescence spectroscopy in a suitable well plate reader.
(§5) The IC50-values can be obtained from the reaction rates by using a non-linear curve fit (Excelfit).

[1] = molecular target: T2, Src (p60^c-src, partially purified) (Homo sapiens, UniProt P12931); assay: SRC-Inhibitor-Assay (time-resolved fluorescence), Src enzyme; type: biochemical; settings: ATP 5 μM, peptide 10 μM, enzyme 2.5 U/ml, pre-incubation 15 min at 15° C.
T2 construct: purchased Upstate (UBI)
T2 sequence (P12931 whole entry, species assumed): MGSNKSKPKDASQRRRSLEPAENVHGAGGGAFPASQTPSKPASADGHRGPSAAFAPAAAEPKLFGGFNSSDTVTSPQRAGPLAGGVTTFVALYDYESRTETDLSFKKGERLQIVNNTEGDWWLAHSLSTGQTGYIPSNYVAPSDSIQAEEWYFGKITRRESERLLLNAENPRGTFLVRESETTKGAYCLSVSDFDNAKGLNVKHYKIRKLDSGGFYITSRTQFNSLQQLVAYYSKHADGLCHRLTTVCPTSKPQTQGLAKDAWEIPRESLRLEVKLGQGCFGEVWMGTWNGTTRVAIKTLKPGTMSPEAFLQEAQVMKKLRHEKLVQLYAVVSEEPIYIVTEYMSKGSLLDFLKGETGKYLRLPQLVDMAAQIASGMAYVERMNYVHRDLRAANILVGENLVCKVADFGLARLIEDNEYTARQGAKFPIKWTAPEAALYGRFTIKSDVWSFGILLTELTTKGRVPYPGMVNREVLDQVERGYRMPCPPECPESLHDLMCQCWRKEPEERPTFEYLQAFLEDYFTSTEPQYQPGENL
Protocol: as §1, §2, §3, §4, §5

IC50 (Lck (p56^lck, active)) [nM]	IC50 [1] [nM]	SMILES
18.8	8.8	CS(=O)(=O)NCCNC(=O)c1nc2nc(Nc3ccc(OCCO)cc3)ncc2cc1-c1ccccc1Br [Example 7-18, 6-(2-bromo-phenyl)-2-[4-(2-hydroxy-ethoxy)-phenylamino]-pyrido[2,3-d]pyrimidine-7-carboxylic acid (2-methanesulfonylamino-ethyl)-amide]
11.1	6.1	COc1cccc(Nc2ncc3cc(-c4ccccc4Br)c(C(=O)NCCNS(C)(=O)=O)nc3n2)c1 [Example 7-20, 6-(2-bromo-phenyl)-2-(3-methoxy-phenylamino)-pyrido[2,3-d]pyrimidine-7-carboxylic acid (2-methanesulfonylamino-ethyl)-amide]
20.1	6.5	N#Cc1nc2nc(Nc3ccc(N4CCOCC4)cc3)ncc2cc1-c1ccccc1Br [Example 4-1, 6-(2-Bromo-phenyl)-2-(4-morpholin-4-yl-phenylamino)-pyrido[2,3-d]pyrimidine-7-carbonitrile; compound with trifluoro-acetic acid]
37	5	CS(=O)(=O)NCCNC(=O)c1nc2nc(Nc3ccc4c(c3)S(=O)(=O)CCO4)ncc2cc1-c1ccccc1Br [Example 7-22, 6-(2-bromo-phenyl)-2-(4,4-dioxo-3,4-dihydro-2H-4lambda*6*-benzo[1,4]oxathiin-6-ylamino)-pyrido[2,3-d]pyrimidine-7-carboxylic acid (2-methanesulfonylamino-ethyl)-amide]
4.2	1.1	CCNCCOc1ccc(Nc2ncc3cc(-c4ccccc4Br)c(C#N)nc3n2)cc1 [Example 4-4, 6-(2-Bromo-phenyl)-2-[4-(2-ethylamino-ethoxy)-phenylamino]-pyrido[2,3-d]pyrimidine-7-carbonitrile]
99.1	30.9	O=C(NCCO)c1nc2nc(Nc3cccc(CO)c3)ncc2cc1-c1ccccc1Br [Example 7-4, 6-(2-bromo-phenyl)-2-(3-hydroxymethyl-phenylamino)-pyrido[2,3-d]pyrimidine-7-carboxylic acid (2-hydroxy-ethyl)-amide]

Continued, compound first:

SMILES	IC50 (Lck (p56^lck, active)) [nM]	IC50 [1] [nM]
NS(=O)(=O)CCNC(=O)c1nc2nc(Nc3ccc(F)cc3)ncc2cc1-c1ccccc1Br [Example 3-37, 6-(2-Bromo-phenyl)-2-(4-fluoro-phenylamino)-pyrido[2,3-d]pyrimidine-7-carboxylic acid (2-sulfamoyl-ethyl)-amide]	189	21
NC(=O)c1nc2nc(Nc3ccc(S(N)(=O)=O)cc3)ncc2cc1-c1ccccc1Br [Example 3-4, 6-(2-Bromo-phenyl)-2-(4-sulfamoyl-phenylamino)-pyrido[2,3-d]pyrimidine-7-carboxylic acid amide]	73.8	6.9
CC(=O)NCCNC(=O)c1nc2nc(Nc3ccc(F)cc3)ncc2cc1-c1ccccc1Br [Example 3-16, 6-(2-Bromo-phenyl)-2-(4-fluoro-phenylamino)-pyrido[2,3-d]pyrimidine-7-carboxylic acid (2-acetylamino-ethyl)-amide]	189	81.4
CCN(CC)CCOc1ccc(Nc2ncc3cc(-c4ccccc4Br)c(C(N)=O)nc3n2)cc1 [Example 3-2, 6-(2-Bromo-phenyl)-2-[4-(2-diethylamino-ethoxy)-phenylamino]-pyrido[2,3-d]pyrimidine-7-carboxylic acid amide]	12.5	4.4
O=C(NCCCN1CCCC1=O)c1nc2nc(Nc3ccc(F)cc3)ncc2cc1-c1ccccc1Br [Example 3-26, 6-(2-Bromo-phenyl)-2-(4-fluoro-phenylamino)-pyrido[2,3-d]pyrimidine-7-carboxylic acid [3-(2-oxo-pyrrolidin-1-yl)-propyl]-amide]	275	197
NC(=O)NNC(=O)c1nc2nc(Nc3ccc(F)cc3)ncc2cc1-c1ccccc1Br [Example 3-18, 1-[6-(2-Bromo-phenyl)-2-(4-fluoro-phenylamino)-pyrido[2,3-d]pyrimidine-7-carbonyl]semicarbazide]	68.4	24.8
CN(C)CC(C)(C)CNC(=O)c1nc2nc(Nc3ccc(F)cc3)ncc2cc1-c1ccccc1Br [Example 3-15, 6-(2-Bromo-phenyl)-2-(4-fluoro-phenylamino)-pyrido[2,3-d]pyrimidine-7-carboxylic acid (3-dimethylamino-2,2-dimethyl-propyl)-amide]	218	41.5
CCN(CC)CCOc1ccc(Nc2ncc3cc(-c4ccccc4Br)c(C(=O)NCCN(C)C)nc3n2)cc1 [Example 3-10, 6-(2-Bromo-phenyl)-2-[4-(2-diethylamino-ethoxy)-phenylamino]-pyrido[2,3-d]pyrimidine-7-carboxylic acid (2-dimethylamino-ethyl)-amide]	3.7	1.6
O=C(N[C@H]1CCCNC1)c1nc2nc(Nc3ccc(F)cc3)ncc2cc1-c1ccccc1Br [Example 3-47, (S)-6-(2-Bromo-phenyl)-2-(4-fluoro-phenylamino)-pyrido[2,3-d]pyrimidine-7-carboxylic acid piperidin-3-ylamide]	27.5	6.6
O=C(N[C@@H]1CCNC1)c1nc2nc(Nc3ccc(F)cc3)ncc2cc1-c1ccccc1Br [Example 3-29, (R)-6-(2-Bromo-phenyl)-2-(4-fluoro-phenylamino)-pyrido[2,3-d]pyrimidine-7-carboxylic acid pyrrolidin-3-ylamide]	429	103
CS(=O)(=O)c1cccc(Nc2ncc3cc(-c4ccccc4Br)c(C#N)nc3n2)c1 [Example 2, 6-(2-Bromo-phenyl)-2-(3-methanesulfonyl-phenylamino)-pyrido[2,3-d]pyrimidine-7-carbonitrile]	159	33
O=C(NC1CCNCC1)c1nc2nc(Nc3ccc(F)cc3)ncc2cc1-c1ccccc1Br [Example 3-11, 6-(2-Bromo-phenyl)-2-(4-fluoro-phenylamino)-pyrido[2,3-d]pyrimidine-7-carboxylic acid piperidin-4-ylamide]	774	66.1
NC(=O)c1nc2nc(Nc3cccc(S(=O)(=O)CCO)c3)ncc2cc1-c1ccccc1Br [Example 3-6, 6-(2-Bromo-phenyl)-2-[3-(2-hydroxy-ethanesulfonyl)-phenylamino]-pyrido[2,3-d]pyrimidine-7-carboxylic acid amide]	145	22.5
O=C(NCCCO)c1nc2nc(Nc3ccc(F)cc3)ncc2cc1-c1ccccc1Br [Example 3-38, 6-(2-Bromo-phenyl)-2-(4-fluoro-phenylamino)-pyrido[2,3-d]pyrimidine-7-carboxylic acid (3-hydroxy-propyl)-amide]	456	91.8
O=C(Nc1cc[nH]n1)c1nc2nc(Nc3ccc(F)cc3)ncc2cc1-c1ccccc1Br [Example 3-49, 6-(2-Bromo-phenyl)-2-(4-fluoro-phenylamino)-pyrido[2,3-d]pyrimidine-7-carboxylic acid (1H-pyrazol-3-yl)-amide]	7.3	4.3
O=C(NCCNc1ccccn1)c1nc2nc(Nc3ccc(F)cc3)ncc2cc1-c1ccccc1Br [Example 3-36, 6-(2-Bromo-phenyl)-2-(4-fluoro-phenylamino)-pyrido[2,3-d]pyrimidine-7-carboxylic acid [2-(pyridin-2-ylamino)-ethyl]-amide]	256	165
CN(C)CCNC(=O)c1nc2nc(Nc3ccc(N4CCOCC4)cc3)ncc2cc1-c1ccccc1Br [Example 3-9, 6-(2-Bromo-phenyl)-2-(4-morpholin-4-yl-phenylamino)-pyrido[2,3-d]pyrimidine-7-carboxylic acid (2-dimethylamino-ethyl)-amide]	12.1	0.9
